In patent US20100069481A1, “METHODS AND COMPOSITIONS FOR THE TREATMENT OF CANCER” (Bionovo, Inc., priority 2008, published 2010):

Experiments:
[1] = test system: breast cancer cells (MDA MB 231, SKBr3); experiment: mitochondrially derived superoxide, MitoSOX staining; assay type: cell-based, human
Experimental: (§1) 1. Induction of the loss of the mitochondrial transmembrane potential (MTP). […] 2. Induction of reactive oxygen species (ROS). […] 3. […] 4. Compounds were tested for induction of DNA damage using test known as comet assay that allows detection of DNA damage in individual cells. […] 6. The mode of cell death (i.e., apoptosis versus necrosis) was studied using several criteria: conversion of cells to positivity for binding Annexin V; DNA fragmentation (characteristic of apoptotic death) and decrease in cellular ATP levels (commonly observed during necrotic death) (FIG. 5). 1. Induction of the loss of the mitochondrial transmembrane potential (MTP). […] 2. Induction of reactive oxygen species (ROS). […] 3. […] 4. Compounds were tested for induction of DNA damage using test known as comet assay that allows detection of DNA damage in individual cells. […] 6. The mode of cell death (i.e., apoptosis versus necrosis) was studied using several criteria: conversion of cells to positivity for binding Annexin V; DNA fragmentation (characteristic of apoptotic death) and decrease in cellular ATP levels (commonly observed during necrotic death) (FIG. 5).

[2] = test system: breast cancer cells (MDA MB 231, SKBr3); experiment: DNA damage, comet assay; assay type: cell-based, human
Experimental: as §1

[3] = test system: breast cancer cells (MDA MB 231, SKBr3); experiment: mode of cell death: Annexin V binding, DNA fragmentation; assay type: cell-based, human
Experimental: as §1

[4] = test system: breast cancer cells (MDA MB 231, SKBr3); experiment: cellular ATP levels, ATP bioluminescence; assay type: cell-based, human
Experimental: as §1

[5] = test system: breast cancer cells (MDA MB 231, SKBr3); experiment: induction of ROS, CM-H2DCFDA staining; assay type: cell-based, human
Experimental: as §1
DCFDA is nonfluorescent in reduced form and is readily membrane-permeant. Cellular esterases cleave its acetate groups. The thiol-reactive chloromethyl group then binds to cellular thiols, trapping the dye inside the cell, where oxidation converts it to the fluorescent form. […] It is relatively insensitive to oxidation by superoxide.
FIG. 1. […] The indicated compounds were added to cells at 20 μg/ml growth medium, followed by addition of 10 μM CM-H2 DCFDA. Inhibitor of mitochondrial respiration, NaN3, was added at 10 mM. After 30 minute incubation, cells were washed in PBS and analyzed on FACScan for fluorescence.

[6] = test system: two different breast cancer cell lines; experiment: induction of ROS (fold), compounds alone and in combination; assay type: cell-based; conditions: Table 11
Experimental: In order to better understand the combined activities of the isolated species, several flavanones and flavones isolated from Scutellaria barbata were tested individually and in combination. The flavanones and flavones tested are depicted in FIG. 8. These compounds 1-8 from were tested for induction of ROS, DNA damage and cell death, as described in Example 2.
The results set forth in Tables 10 and 11 were confirmed by performing the experiments in two different breast cancer cell lines.

| Compound | generation of mitochondrial superoxide [1] | induction of DNA damage [2] | cell death and its mode [3] | cellular ATP levels [4] | induction of cellular ROS [5] | Induction of ROS (fold) [6] |
| --- | --- | --- | --- | --- | --- | --- |
| O=c1cc(-c2ccc(O)cc2)oc2cc(O)cc(O)c12 [Apigenin] | induce generation of superoxide whose origin is identified as mitochondrial | do not induce DNA damage | induce significant cell death characterized as apoptotic | slight but consistent increase in ATP levels | – | – |
| O=C1CC(c2ccc(O)cc2)Oc2cc(O)c(O)c(O)c21 (stereo not drawn) [Carthamidin] | – | induce DNA damage | – | – | induce ROS, but of extra-mitochondrial origin | – |
| O=C1CC(c2ccc(O)cc2)Oc2c(O)c(O)cc(O)c21 (stereo not drawn) [Isocarthamidin] | – | induce DNA damage | – | – | induce ROS, but of extra-mitochondrial origin | – |
| O=c1cc(-c2ccc(O)cc2)oc2c(O)c(O)cc(O)c12 [Isoscutellarein] | – | induce DNA damage | cell death that has hallmarks of programmed necrosis | – | induce ROS, but of extra-mitochondrial origin | – |
| O=c1cc(-c2ccc(O)cc2)oc2cc(O)c(O)c(O)c12 [Scutellarein] | – | induce DNA damage | cell death that has hallmarks of programmed necrosis | – | induce ROS, but of extra-mitochondrial origin | – |
| O=c1cc(-c2ccc(O)cc2)oc2cc(O)cc(O)c12 [cmpd 4] | – | – | – | – | – | 0.6 fold |
